{
  "source": "patent US11459324B2",
  "about": "“O-glycoprotein-2-acetamido-2-deoxy-3-D-glycopyranosidase inhibitors” (BIOGEN MA INC., priority 2018, dated 2022)",
  "data": [
    {"biological_target": "T1, Recombinant full length human OGA enzyme (Homo sapiens, UniProt O60502)", "T1 construct": "Recombinant full length human OGA enzyme was purchased from Origene; purchased Origene", "T1 sequence (O60502 1-916)": "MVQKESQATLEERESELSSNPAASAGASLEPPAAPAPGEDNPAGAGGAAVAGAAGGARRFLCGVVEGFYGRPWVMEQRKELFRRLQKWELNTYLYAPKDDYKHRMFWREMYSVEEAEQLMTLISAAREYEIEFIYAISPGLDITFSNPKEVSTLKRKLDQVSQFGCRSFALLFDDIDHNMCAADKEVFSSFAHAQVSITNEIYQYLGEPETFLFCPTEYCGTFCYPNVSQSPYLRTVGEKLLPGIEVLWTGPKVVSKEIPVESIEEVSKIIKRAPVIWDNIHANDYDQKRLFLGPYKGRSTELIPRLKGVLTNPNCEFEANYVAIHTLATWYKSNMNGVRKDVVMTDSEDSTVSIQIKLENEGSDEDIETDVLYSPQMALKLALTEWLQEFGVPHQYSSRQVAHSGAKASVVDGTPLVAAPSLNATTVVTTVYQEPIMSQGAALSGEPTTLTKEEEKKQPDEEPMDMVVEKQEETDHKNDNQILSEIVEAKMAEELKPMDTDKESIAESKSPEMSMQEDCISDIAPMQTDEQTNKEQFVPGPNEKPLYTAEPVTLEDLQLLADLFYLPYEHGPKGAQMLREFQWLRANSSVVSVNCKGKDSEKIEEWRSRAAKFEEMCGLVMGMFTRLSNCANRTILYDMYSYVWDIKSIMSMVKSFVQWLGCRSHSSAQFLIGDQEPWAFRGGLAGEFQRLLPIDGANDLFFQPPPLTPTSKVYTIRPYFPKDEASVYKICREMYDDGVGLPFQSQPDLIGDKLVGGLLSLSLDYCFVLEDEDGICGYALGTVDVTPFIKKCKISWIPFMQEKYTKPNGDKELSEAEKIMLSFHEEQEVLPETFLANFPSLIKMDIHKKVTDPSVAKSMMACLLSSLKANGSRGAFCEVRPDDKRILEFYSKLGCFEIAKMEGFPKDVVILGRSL", "experiment": "OGA Enzyme Inhibition Biochemical Assay", "details": "1 nM OGA, 100 μM 4-MUGlcNAc (Km), pH 6.4, 90 minutes at room temperature, 10-point dose-response from 20 μM", "summary_of_the_method": "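Full-length human OGA at 1 nM with 100 μM 4-MUGlcNAc (Km) in McIlvaine buffer pH 6.4 plus 0.01% BSA, 90 min at room temperature, then glycine pH 10 quench. Fluorescence read at Ex 355/Em 460 nm. 10-point, 4-fold dose-response from 20 μM, 4-parameter variable-slope fit.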", "units": {"IC50": "nM"}, "values": [
      {"smiles": "CC(=O)Nc1ncc(CN2CCCC(Cn3cc(C(C)=O)cn3)C2)s1", "note": "(stereo not shown) [Example 4-11, N-(5-((3-((4-acetyl-1H-pyrazol-1-yl)methyl)piperidin-1-yl)methyl)thiazol-2-yl)acetamide]", "IC50": 15},
      {"smiles": "CC(=O)Nc1ncc(CN2C[C@@H](Cc3noc(C)n3)C[C@@H]2C)s1", "note": "[Example 4-13, N-(5-(((2S,4R)-2-methyl-4-((5-methyl-1,2,4-oxadiazol-3-yl)methyl)pyrrolidin-1-yl)methyl)thiazol-2-yl)acetamide]", "IC50": 1.9},
      {"smiles": "CC(=O)Nc1ncc(CN2C[C@H](Cc3noc(C)n3)C[C@@H]2C)s1", "note": "[Example 4-14, N-(5-(((2S,4S)-2-methyl-4-((5-methyl-1,2,4-oxadiazol-3-yl)methyl)pyrrolidin-1-yl)methyl)thiazol-2-yl)acetamide]", "IC50": 3.8},
      {"smiles": "CC(=O)Nc1nc(F)c(CN2C[C@H](Cc3noc(C)n3)CC[C@@H]2C)s1", "note": "[Example 4-15, N-(4-fluoro-5-(((2S,5S)-2-methyl-5-((5-methyl-1,2,4-oxadiazol-3-yl)methyl)piperidin-1-yl)methyl)thiazol-2-yl)acetamide]", "IC50": 1.6},
      {"smiles": "CC(=O)Nc1nc(F)c(CN2C[C@@H](Cc3noc(C)n3)CC[C@@H]2C)s1", "note": "[Example 4-16, N-(4-fluoro-5-(((2S,5R)-2-methyl-5-((5-methyl-1,2,4-oxadiazol-3-yl)methyl)piperidin-1-yl)methyl)thiazol-2-yl)acetamide]", "IC50": "< 1"},
      {"smiles": "CC(=O)Nc1ncc(CN2CC(Cc3noc(C)n3)CC[C@@H]2C)s1", "note": "(stereo partly drawn) [Example 4-17, N-(5-(((2S)-2-methyl-5-((5-methyl-1,2,4-oxadiazol-3-yl)methyl)piperidin-1-yl)methyl)thiazol-2-yl)acetamide]", "IC50": "< 1"},
      {"smiles": "CC(=O)Nc1nc(F)c(CN2CCCC(Cc3noc(C)n3)C2)s1", "note": "(stereo not shown) [Example 4-18, N-(4-fluoro-5-((3-((5-methyl-1,2,4-oxadiazol-3-yl)methyl)piperidin-1-yl)methyl)thiazol-2-yl)acetamide]", "IC50": 6.6},
      {"smiles": "CC(=O)Nc1ncc(CN2CCCC(Cc3noc(C)n3)C2)s1", "note": "(stereo not shown) [Example 4-19, N-(5-((3-((5-methyl-1,2,4-oxadiazol-3-yl)methyl)piperidin-1-yl)methyl)thiazol-2-yl)acetamide]", "IC50": 9.3},
      {"smiles": "CC(=O)Nc1ncc(CN2CCCC(Cn3ccnn3)C2)s1", "note": "(stereo not shown) [Example 4-20, N-(5-((3-((1H-1,2,3-triazol-1-yl)methyl)piperidin-1-yl)methyl)thiazol-2-yl)acetamide]", "IC50": 55},
      {"smiles": "CC(=O)Nc1ncc(CN2CCCC(Cn3cncn3)C2)s1", "note": "(stereo not shown) [Example 4-21, N-(5-((3-((1H-1,2,4-triazol-1-yl)methyl)piperidin-1-yl)methyl)thiazol-2-yl)acetamide]", "IC50": 38},
      {"smiles": "CC(=O)Nc1ncc(CN2CCCC(Cc3nccn3C)C2)s1", "note": "(stereo not shown) [Example 4-22, N-(5-((3-((1-methyl-1H-imidazol-2-yl)methyl)piperidin-1-yl)methyl)thiazol-2-yl)acetamide]", "IC50": 43},
      {"smiles": "CC(=O)Nc1ncc(CN2CCCC(Cc3nnc4ccccn34)C2)s1", "note": "(stereo not shown) [Example 4-23, N-(5-((3-([1,2,4]triazolo[4,3-a]pyridin-3-ylmethyl)piperidin-1-yl)methyl)thiazol-2-yl)acetamide]", "IC50": 27},
      {"smiles": "CC(=O)Nc1ncc(CN2CCCC(Cn3cnc4ccccc43)C2)s1", "note": "(stereo not shown) [Example 4-24, N-(5-((3-((1H-benzo[d]imidazol-1-yl)methyl)piperidin-1-yl)methyl)thiazol-2-yl)acetamide]", "IC50": 58}
    ]}
  ]
}
